In PubChem BioAssay (NCI):
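Interpolation was linear, between the two tested concentrations surrounding the appropriate level; five concentrations were tested over 48 hours in 96-well plates. Here, GI50 denotes the concentration required for 50% inhibition of growth. The concentration for full growth arrest is given as TGI.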

How the values were obtained:
Experiment in all cases: DTP human tumour cell line panel, 48 h
[1] = system: DU-145 prostate
[2] = system: UACC-257 melanoma
[3] = system: UACC-62 melanoma
[4] = system: MALME-3M melanoma
[5] = system: COLO 205 colon
[6] = system: ACHN renal
[7] = system: HT29 colon
[8] = system: KM12 colon
[9] = system: HCT-116 colon
[10] = system: SNB-75 CNS
[11] = system: T-47D breast
[12] = system: OVCAR-8 ovarian
[13] = system: HOP-62 NSCLC
[14] = system: MCF7 breast
[15] = system: 786-0 renal
[16] = system: SR leukemia
[17] = system: RPMI-8226 leukemia
[18] = system: BT-549 breast
[19] = system: NCI-H23 lung
[20] = system: A498 renal
[21] = system: SNB-19 CNS
[22] = system: U251 CNS
[23] = system: SK-MEL-28 melanoma
[24] = system: SK-MEL-2 melanoma
[25] = system: SK-MEL-5 melanoma
[26] = system: PC-3 prostate
[27] = system: NCI-H460 lung
[28] = system: LOX IMVI melanoma
[29] = system: SF-539 CNS
[30] = system: UO-31 renal
[31] = system: NCI-H226 lung
[32] = system: NCI-H522 lung
[33] = system: NCI/ADR-RES ovarian
[34] = system: SK-OV-3 ovarian
[35] = system: EKVX NSCLC
[36] = system: SN12C renal
[37] = system: RXF 393 renal
[38] = system: SF-268 CNS
[39] = system: TK-10 renal
[40] = system: HS 578T breast
[41] = system: HOP-92 NSCLC
[42] = system: OVCAR-3 ovarian
[43] = system: SW-620 colon
[44] = system: CAKI-1 renal
[45] = system: M14 melanoma
[46] = system: HCC-2998 colon
[47] = system: MOLT-4 leukemia
[48] = system: OVCAR-4 ovarian
[49] = system: OVCAR-5 ovarian
[50] = system: IGROV1 ovarian
[51] = system: MDA-MB-435
[52] = system: A549 NSCLC
[53] = system: K-562 leukemia
[54] = system: SF-295 CNS
[55] = system: MDA-MB-231 breast
[56] = system: CCRF-CEM leukemia
[57] = system: MDA-MB-468 breast
[58] = system: HL-60(TB) leukemia
[59] = system: HCT-15 colon

Structure (SMILES): CCOC(=O)c1sc(N/N=C(\C)c2ccc3c(c2)Nc2ccccc2S3)nc1C
- GI50 [1]: 8.82 µM
- TGI [1]: 29.1 µM
- GI50 [2]: 12.4 µM
- TGI [2]: 40.4 µM
- GI50 [3]: 6.06 µM
- TGI [3]: 20.6 µM
- GI50 [4]: 13.7 µM
- TGI [4]: 33.6 µM
- GI50 [5]: 9.42 µM
- TGI [5]: 32.2 µM
- GI50 [6]: 6.1 µM
- TGI [6]: 19.1 µM
- GI50 [7]: 11.7 µM
- TGI [7]: > 100 µM
- GI50 [8]: 3.45 µM
- TGI [8]: 19.4 µM
- GI50 [9]: 6.64 µM
- TGI [9]: > 100 µM
- GI50 [10]: 8.97 µM
- TGI [10]: 31.2 µM
- GI50 [11]: 3.94 µM
- TGI [11]: 49.2 µM
- GI50 [12]: 12 µM
- TGI [12]: 39.6 µM
- GI50 [13]: 13.3 µM
- TGI [13]: 29.6 µM
- GI50 [14]: 3.36 µM
- TGI [14]: 17.5 µM
- GI50 [15]: 7.21 µM
- TGI [15]: 23.1 µM
- GI50 [16]: > 100 µM
- TGI [16]: > 100 µM
- GI50 [17]: 3.96 µM
- TGI [17]: > 100 µM
- GI50 [18]: 18.4 µM
- TGI [18]: 49.3 µM
- GI50 [19]: 8.65 µM
- TGI [19]: 21.3 µM
- GI50 [20]: 16.1 µM
- TGI [20]: 45.5 µM
- GI50 [21]: 12.8 µM
- TGI [21]: 25.6 µM
- GI50 [22]: 14.1 µM
- TGI [22]: 54 µM
- GI50 [23]: 11.1 µM
- TGI [23]: 26.1 µM
- GI50 [24]: 15.4 µM
- TGI [24]: 44.8 µM
- GI50 [25]: 7.62 µM
- TGI [25]: 27.2 µM
- GI50 [26]: 6.04 µM
- TGI [26]: 24 µM
- GI50 [27]: 5 µM
- TGI [27]: 24.2 µM
- GI50 [28]: 3.14 µM
- TGI [28]: 12.4 µM
- GI50 [29]: 10.1 µM
- TGI [29]: 21.7 µM
- GI50 [30]: 6.67 µM
- TGI [30]: 20.7 µM
- GI50 [31]: 10.9 µM
- TGI [31]: 29.3 µM
- GI50 [32]: 10.7 µM
- TGI [32]: 34.8 µM
- GI50 [33]: 8.87 µM
- TGI [33]: 22.2 µM
- GI50 [34]: 16.9 µM
- TGI [34]: 39.7 µM
- GI50 [35]: 5.82 µM
- TGI [35]: 22.8 µM
- GI50 [36]: 11.5 µM
- TGI [36]: 28.3 µM
- GI50 [37]: 3.2 µM
- TGI [37]: 13.3 µM
- GI50 [38]: 13.1 µM
- TGI [38]: 40.4 µM
- GI50 [39]: 16.6 µM
- TGI [39]: 33.5 µM
- GI50 [40]: 10.5 µM
- TGI [40]: 50.6 µM
- GI50 [41]: 4.9 µM
- TGI [41]: 19.9 µM
- GI50 [42]: 12.8 µM
- TGI [42]: 27.3 µM
- GI50 [43]: 11.9 µM
- TGI [43]: 45.2 µM
- GI50 [44]: 9.09 µM
- TGI [44]: 22.8 µM
- GI50 [45]: 8.42 µM
- TGI [45]: 61.8 µM
- GI50 [46]: 3.71 µM
- TGI [46]: 12.8 µM
- GI50 [47]: 6.33 µM
- TGI [47]: > 100 µM
- GI50 [48]: 10.7 µM
- TGI [48]: 53.7 µM
- GI50 [49]: 11.6 µM
- TGI [49]: 67.6 µM
- GI50 [50]: 11.3 µM
- TGI [50]: 26 µM
- GI50 [51]: 10.7 µM
- TGI [51]: 33.6 µM
- GI50 [52]: 6.4 µM
- TGI [52]: 38.8 µM
- GI50 [53]: 4.03 µM
- TGI [53]: > 100 µM
- GI50 [54]: 3.38 µM
- TGI [54]: 14.1 µM
- GI50 [55]: 5.73 µM
- TGI [55]: 19.1 µM
- GI50 [56]: 6.52 µM
- TGI [56]: 94.4 µM
- GI50 [57]: 3.45 µM
- TGI [57]: 15.1 µM
- GI50 [58]: 4.89 µM
- TGI [58]: > 100 µM
- GI50 [59]: 3.4 µM
- TGI [59]: 14.8 µM
